Results on 8 compounds are retold here after patent US9663533B2, “Thieno[3,2-C]pyridin-4(5H)-ones as BET inhibitors” (GlaxoSmithKline LLC, priority 2012, dated 2017).

Counter-ions that a name gives are not always drawn. Bounds are passed on as bounds.

One test relates to Bromodomains BRD2, BRD3, BRD4 and BRDT, mutated proteins (BD1 or BD2). The test is described as follows: TR-FRET assay: affinity of the fluoroligand for mutated versus non-mutated binding domain. Particulars: single residue mutations in the acetyl lysine binding pocket. Further details: species or system Human. The procedure: Binding was assessed using a time resolved fluorescent resonance energy transfer binding assay. This utilises a 6 His purification tag at the N-terminal of the proteins as an epitope for an anti-6 His antibody labeled with Europium chelate (PerkinElmer AD0111) allowing binding of the Europium to the proteins which acts as the donor fluorophore. A small molecule, high affinity binder of the bromodomains BRD2, BRD3, BRD4 and BRDT has been labeled with Alexa Fluor647 (Reference Compound X) and this acts as the acceptor in the FRET pair.
The binding of the compounds of formula (I) to Bromodomains BRD2, BRD3, BRD4 and BRDT was assessed using mutated proteins to detect differential binding to either Binding Domain 1 (BD1) or Binding Domain 2 (BD2) on the bromodomain. These single residue mutations in the acetyl lysine binding pocket greatly lower the affinity of the fluoroligand (Reference Compound X) for the mutated domain (>1000 fold selective for the non-mutated domain). Therefore in the final assay conditions, binding of the fluoroligand to the mutated domain cannot be detected and subsequently the assay is suitable to determine the binding of compounds to the single non-mutated bromodomain. […]
In general terms: Time-resolved FRET reads energy transfer from a long-lived donor to a nearby acceptor.
Consider `COc1ccc2c(c1)C(c1ccc(Cl)cc1)=N[C@@H](CC(=O)NCCCCCNC(=O)CCCCCC1(C)/C(=C/C=C/C=C/C3=[N+](CCCCS(=O)(=O)O)c4ccc(S(=O)(=O)O)cc4C3(C)C)N(CCCCS(=O)(=O)[O-])c3ccc(S(=O)(=O)O)cc31)c1nnc(C)n1-2` (stereo partly drawn) [Reference Compound X], for which the “Selectivity of the fluoroligand for the non-mutated domain over the mutated domain” value is given as over 1000 fold.

The test system of another test is LPS induced IL-6 secretion from human whole blood. In words: Quantification of LPS induced IL-6 secretion from human whole blood. The test is classed as cell-based. Particulars: LPS 200 ng/mL, 24 hours, MSD ELISA, read-out: pIC50, LPS induced IL-6 secretion (converted). From the text:
Quantification of LPS Induced IL-6 Secretion from Human Whole Blood
Activation of monocytic cells by agonists of toll-like receptors such as bacterial lipopolysaccharide (LPS) leads to the activation of intracellular signaling pathways resulting in the production of key pro-inflammatory mediators including IL-6. Such pathways are widely considered to be central to the pathophysiology of a range of auto-immune and inflammatory disorders.
The impact of bromodomain inhibitors on IL-6 release was assessed in an LPS-stimulated human whole blood assay. Briefly, serial dilutions of test compounds were prepared in DMSO and 1 μL of the diluted compounds or vehicle (DMSO) was added to each well in a 96-well cell culture plate. Fresh blood was collected in heparinized tubes by venipuncture from volunteers with consent, and 130 uL/well was added in the culture plate already containing the compounds. The plates were then incubated for 30 min at 37° C. and 5% CO2 before the addition of 10 μl of 2.8 μg/mL LPS diluted in 1% BSA (LPS from Salmonella typhosa; Sigma L 6386 at a final concentration of 200 ng/mL). After further incubation for 24 hours at 37° C. and 5% CO2, 140 μl of PBS were added to each well. The plates were then sealed, shaken for 10 minutes and then centrifuged for 10 minutes at 2000 rpm. 100 μl of the supernatant were removed and IL-6 levels quantified using an MSD ELISA (MesoScale Discovery technology). Concentration response curves for each compound were generated and an IC50 values were calculated.
(In general: ELISA stands for enzyme-linked immunosorbent assay.)
As to `CC(=O)Nc1cc(-c2cn(C)c(=O)c3cc(CN4CCN(S(C)(=O)=O)C[C@H]4C)sc23)ccn1` [Example 119, (R)-N-(4-(5-methyl-2-((2-methyl-4-(methylsulphonyl)piperazin-1-yl)methyl)-4-oxo-4,5-dihydrothieno[3,2-c]pyridin-7-yl)pyridin-2-yl)acetamide], the IC50 is at most 10 µM. In the case of `Cn1cc(-c2ccnc(OCC3CCOCC3)c2)c2sc(CN3CCN(S(C)(=O)=O)CC3)cc2c1=O` [Example 7, 5-methyl-2-((4-(methylsulphonyl)piperazin-1-yl)methyl)-7-(2-((tetrahydro-2H-pyran-4-yl)methoxy)pyridin-4-yl)thieno[3,2-c]pyridin-4(5H)-one], the IC50 is at most 10 µM. On the same count and under the same terms, the value for `CN1CCCN(Cc2cc3c(=O)n(C)cc(-c4cccc(OCc5ccccc5)c4)c3s2)CC1` [Example 40, 7-(3-(benzyloxy)phenyl)-5-methyl-2-((4-methyl-1,4-diazepan-1-yl)methyl)thieno[3,2-c]pyridin-4(5H)-one, Hydrochloride] was at most 10 µM; that for `C[C@@H]1CN(S(C)(=O)=O)CCN1Cc1cc2c(=O)n(C)cc(-c3ccncc3OCC3CC3)c2s1` [Example 168, (R)-7-(3-(cyclopropylmethoxy)pyridin-4-yl)-5-methyl-2-((2-methyl-4-(methylsulfonyl)piperazin-1-yl)methyl)thieno[3,2-c]pyridin-4(5H)-one] was at most 10 µM; that for `CC(Oc1cncc(-c2cn(C)c(=O)c3cc(CN4CCN(S(C)(=O)=O)CC4)sc23)c1)c1ccccc1` (stereo not drawn) [Example 1, 5-methyl-2-((4-(methylsulphonyl)piperazin-1-yl)methyl)-7-(5-(1-phenylethoxy)pyridin-3-yl)thieno[3,2-c]pyridin-4(5H)-one hydrochloride] was at most 10 µM.

As to `CC(Oc1cncc(-c2cn(C)c(=O)c3cc(CN4CCN(S(C)(=O)=O)CC4)sc23)c1)c1ccccn1` (racemic) [Example 3, (±)-5-methyl-2-((4-(methylsulphonyl)piperazin-1-yl)methyl)-7-(5-(1-(pyridin-2-yl)ethoxy)pyridin-3-yl)thieno[3,2-c]pyridin-4(5H)-one], the IC50 was at most 10 µM. Take `CCCC[C@@H]1CN(Cc2cc3c(=O)n(C)cc(-c4ccc(OC)c(OC)c4)c3s2)CCN1` [Example 97, (R)-2-((3-butylpiperazin-1-yl)methyl)-7-(3,4-dimethoxyphenyl)-5-methylthieno[3,2-c]pyridin-4(5H)-one]: the IC50 was at most 10 µM.

In another test the test system is Bromodomain BRD4, mutated proteins (BD1 or BD2). The test is described as follows: FP assay: affinity of the fluoroligand for mutated versus non-mutated binding domain. To be noted: single residue mutations in the acetyl lysine binding pocket. More on the design: species or system Human. On the procedure: Binding was assessed using a […] binding assay. This utilises a 6 His purification tag at the N-terminal of the proteins as an epitope for an anti-6 His antibody labeled with Europium chelate (PerkinElmer AD0111) allowing binding of the Europium to the proteins which acts as the donor fluorophore. A small molecule, high affinity binder of the bromodomains BRD2, BRD3, BRD4 and BRDT has been labeled with Alexa Fluor647 (Reference Compound X) and this acts as the acceptor in the FRET pair.
The binding of the compounds of formula (I) to Bromodomain BRD4 was assessed using mutated proteins to detect differential binding to either Binding Domain 1 (BD1) or Binding Domain 2 (BD2) on the bromodomain. These single residue mutations in the acetyl lysine binding pocket greatly lower the affinity of the fluoroligand (Reference Compound X) for the mutated domain (>1000 fold selective for the non-mutated domain). Therefore in the final assay conditions, binding of the fluoroligand to the mutated domain cannot be detected and subsequently the assay is suitable to determine the binding of compounds to the single non-mutated bromodomain.
Protein Production: Recombinant Human Bromodomains [BRD4 (1-477) (Y97A) and (Y390A)] were expressed in E. coli cells (in pET15b vector) with a 6-His tag at the N-terminal. […]
Consider `COc1ccc2c(c1)C(c1ccc(Cl)cc1)=N[C@@H](CC(=O)NCCCCCNC(=O)CCCCCC1(C)/C(=C/C=C/C=C/C3=[N+](CCCCS(=O)(=O)O)c4ccc(S(=O)(=O)O)cc4C3(C)C)N(CCCCS(=O)(=O)[O-])c3ccc(S(=O)(=O)O)cc31)c1nnc(C)n1-2` (stereo partly drawn) [Reference Compound X], for which the “Selectivity of the fluoroligand for the non-mutated domain over the mutated domain” value is given as over 1000 fold.
